Experimental data published in US9296698B2, “Amino heteroaryl compounds as beta-secretase modulators and methods of use” (Amgen Inc., priority 2009, dated 2016).
pIC50: −log10 of the molar value. Read-outs that look alike come from different tables or passages of the source.

What was measured:
[1] = test system: Aβ40 in conditioned medium of cells stably expressing Amyloid Precursor Protein (APP); experiment: In vitro BACE cell-based assay (HEK cell assay), Aβ40 sandwich ELISA
Summary of the method: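 Cells stably expressing APP received 10-point compound dilutions (top 100 μM or 10 μM; 0.1% DMSO) for 24 h. Secreted Aβ40 was quantified by sandwich ELISA (pAb40 capture, biotinylated 6E10 detection, europium time-resolved fluorescence). IC50 was derived from percent inhibition versus concentration.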

[2] = biological target: BACE 1 (Beta Secretase enzyme) (Homo sapiens, UniProt P56817); experiment: In vitro enzymatic BACE FRET assay; assay type: biochemical
Summary of the method: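 BACE activity read by FRET: peptide substrate (50 nM) carrying fluorophore and quencher across the cleavage site, incubated one hour in 0.05 M acetate pH 4.2, 10% DMSO final, 100 uM genapol. Tris addition raises pH to neutrality to stop the reaction before fluorescence is read.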

[3] = Homo sapiens, HEK293, 24 h, IC50 range symbols, Table 1, Aβ40, 24 h incubation, read-out: HEK cell assay
[4] = IC50 range symbols, Table 1, read-out: BACE 1 FRET assay
[5] = IC50 range symbols, Table 1, Aβ40, 24 h incubation, read-out: HEK cell assay
[6] = bound stated, read-out: IC50 value in the FRET BACE enzyme assay

BACE 1 (Beta Secretase enzyme), sequence (P56817 46-501, species assumed): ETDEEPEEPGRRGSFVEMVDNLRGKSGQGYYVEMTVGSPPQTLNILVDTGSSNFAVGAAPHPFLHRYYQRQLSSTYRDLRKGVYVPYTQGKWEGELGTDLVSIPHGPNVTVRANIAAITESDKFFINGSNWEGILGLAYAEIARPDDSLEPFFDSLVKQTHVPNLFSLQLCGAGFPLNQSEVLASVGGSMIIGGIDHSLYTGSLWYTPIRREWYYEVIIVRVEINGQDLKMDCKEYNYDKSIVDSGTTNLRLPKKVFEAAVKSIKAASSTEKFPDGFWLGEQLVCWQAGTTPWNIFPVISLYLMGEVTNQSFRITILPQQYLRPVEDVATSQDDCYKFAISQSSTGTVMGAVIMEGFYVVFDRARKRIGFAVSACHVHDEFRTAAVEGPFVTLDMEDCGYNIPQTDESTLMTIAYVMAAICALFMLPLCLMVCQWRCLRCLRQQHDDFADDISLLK

CC(Cc1cc2cc(-c3ncccc3Cl)ccc2nc1N)C(=O)NC[C@H]1CCCCO1 (stereo partly drawn) [Example 83, 3-(2-amino-6-(3-chloropyridin-2-yl)quinolin-3-yl)-2-methyl-N-(((R)-tetrahydro-2H-pyran-2-yl)methyl)propanamide]
pIC50 [1, 3]: 5.30 to 6.00
pIC50 [2, 4]: > 6.30

Cc1cccnc1-c1ccc2nc(N)c(CC(C)C(=O)NCCC(F)(F)F)cc2c1 (centres unmarked) [Example 112, 3-(2-amino-6-(3-methylpyridin-2-yl)quinolin-3-yl)-2-methyl-N-(3,3,3-trifluoropropyl)propanamide]
pIC50 [1, 3]: 6.00 to 6.30
pIC50 [2, 4]: > 6.30

Cc1ccccc1-c1ccc2nc(N)c(CCCNC(=O)C3CCCCC3)cc2c1 [Example 48, N-(3-(2-amino-6-o-tolylquinolin-3-yl)propyl)cyclohexanecarboxamide]
pIC50 [1, 3]: 5.30 to 6.00
pIC50 [2, 4]: > 6.30

Nc1nc2ccc(-c3ccccc3)cc2cc1CCC(=O)NCC1CCCCC1 [Example 45, 3-(2-amino-6-phenylquinolin-3-yl)-N-(cyclohexylmethyl)propanamide]
pIC50 [1, 3]: < 5.30
pIC50 [2, 4]: 6.00 to 6.30

COc1ccccc1-c1ccc2nc(N)c(CCC(=O)NCC3CCCCC3)cc2c1 [Example 44, 3-(2-amino-6-(2-methoxyphenyl)quinolin-3-yl)-N-(cyclohexylmethyl)propanamide]
pIC50 [1, 3]: 5.30 to 6.00
pIC50 [2, 4]: > 6.30

CNC(=O)[C@@H](C)Cc1cc2cc(-c3c(C)cccc3C(=O)N3CCCC3)ccc2nc1N [Example 155, (S) 3-(2-amino-6-(2-methyl-6-(pyrrolidine-1-carbonyl)phenyl)quinolin-3-yl)-N,2-dimethylpropanamide]
pIC50 [1, 3]: 5.30 to 6.00
pIC50 [2, 4]: 5.30 to 6.00

Cc1cccnc1-c1ccc2nc(N)c(CC(C)C(=O)NCCC3(C)CC3)cc2c1 (centres unmarked) [Example 102, 3-(2-amino-6-(3-methylpyridin-2-yl)quinolin-3-yl)-2-methyl-N-(2-(1-methylcyclopropyl)ethyl)propanamide]
pIC50 [1, 3]: > 6.30
pIC50 [2, 4]: > 6.30

N-(4-fluoro-4-methylpentan-2-yl)-2-methyl-3-(6-(3-methylpyridin-2-yl)quinolin-3-yl)propanamide [Example 100]
pIC50 [1, 5]: 5.30 to 6.00
pIC50 [2, 4]: 6.00 to 6.30

3-(3-amino-7-o-tolylnaphthalen-2-yl)-N-(1-phenylethyl)propanamide [Example 30]
pIC50 [1, 5]: 5.30 to 6.00
pIC50 [2, 4]: > 6.30

COc1ccccc1[C@@H](C)NC(=O)[C@H](C)Cc1cc2cc(-c3ccccc3C)ccc2nc1N [Example 74, (R)-3-(2-amino-6-o-tolylquinolin-3-yl)-N-((R)-1-(2-methoxyphenyl)ethyl)-2-methylpropanamide]
pIC50 [1, 3]: < 5.30
pIC50 [2, 4]: 5.30 to 6.00

Cc1ccccc1-c1ccc2nc(N)c(CC(C)C(=O)NC(C)c3ccccc3F)cc2c1 (centres unmarked) [Example 106, 3-(2-amino-6-o-tolylquinolin-3-yl)-N-(1-(2-fluorophenyl)ethyl)-2-methylpropanamide]
pIC50 [1, 3]: < 5.30
pIC50 [2, 4]: > 6.30
pIC50 [2, 6]: > 7.30

Cc1ccccc1-c1cc2cc(CCC(=O)NCC3CCCCC3)c(N)nc2cc1C [Example 95, 3-(2-amino-7-methyl-6-(2-methylphenyl)-3-quinolinyl)-N-(cyclohexylmethyl)propanamide]
pIC50 [1, 3]: < 5.30
pIC50 [2, 4]: > 6.30

CC(Cc1cc2cc([C@H]3C[C@H]3C)ccc2nc1N)C(=O)NCCC(C)(C)C (stereo partly drawn) [Example 121, 3-(2-amino-6-((1S,2R)-2-methylcyclopropyl)quinolin-3-yl)-N-(3,3-dimethylbutyl)-2-methylpropanamide]
pIC50 [1, 3]: < 5.30
pIC50 [2, 4]: 6.00 to 6.30

Cc1ccccc1-c1cc2cc(CCC(=O)NCCC(C)(C)C)c(N)nc2cn1 [Example 135, 3-(2-amino-6-o-tolyl-1,7-naphthyridin-3-yl)-N-(3,3-dimethylbutyl)propanamide]
pIC50 [1, 3]: < 5.30
pIC50 [2, 4]: > 6.30
pIC50 [2, 6]: > 7.30

Cc1ccccc1-c1ccc2nc(N)c(CCC(=O)N[C@H](C)c3cccnc3)cc2c1 [Example 131, (R)-3-(2-amino-6-o-tolylquinolin-3-yl)-N-(1-(pyridin-3-yl)ethyl)propanamide]
pIC50 [1, 5]: 5.30 to 6.00
pIC50 [2, 4]: > 6.30

CC(=O)c1ccccc1-c1ccc2nc(N)c(CC(C)C(=O)Nc3ccccc3)cc2c1 (centres unmarked) [Example 152, 3-(6-(2-acetylphenyl)-2-aminoquinolin-3-yl)-2-methyl-N-phenylpropanamide]
pIC50 [1, 3]: > 6.30
pIC50 [2, 4]: > 6.30

Cc1ccccc1-c1ccc2nc(N)c(CC(C)C(=O)NCC3CCCOC3)cc2c1 (centres unmarked) [Example 92, 3-(2-amino-6-o-tolylquinolin-3-yl)-2-methyl-N-((tetrahydro-2H-pyran-3-yl)methyl)propanamide]
pIC50 [1, 3]: > 6.30
pIC50 [2, 4]: > 6.30

COc1ccccc1[C@@H](C)NC(=O)C(C)Cc1cc2cc(-c3ccccc3C)ccc2nc1N (stereo partly drawn) [Example 129, 3-(2-amino-6-o-tolylquinolin-3-yl)-N-((R)-1-(2-methoxyphenyl)ethyl)-2-methylpropanamide]
pIC50 [1, 5]: 5.30 to 6.00
pIC50 [2, 4]: > 6.30

Cc1ccc(NC(=O)CCc2cc3cc(-c4ccccc4C)ccc3nc2N)c(F)c1 [Example 53, 3-(2-amino-6-o-tolylquinolin-3-yl)-N-(2-fluoro-4-methylphenyl)propanamide]
pIC50 [1, 3]: 5.30 to 6.00
pIC50 [2, 4]: 5.30 to 6.00

Cc1ccccc1-c1ccc2nc(N)c(C[C@@H](C)C(=O)NCc3ccncn3)cc2c1 [Example 84, (R)-3-(2-amino-6-o-tolylquinolin-3-yl)-2-methyl-N-(pyrimidin-4-ylmethyl)propanamide]
pIC50 [1, 3]: > 6.30
pIC50 [2, 4]: > 6.30
pIC50 [2, 6]: > 7.30

3-(2-amino-6-(2-methyl-6-(1-pyrrolidinylcarbonyl)phenyl)-3-quinolinyl)-N-(2,2-dimethyltetrahydro-2H-pyran-4-yl)-2-methylpropanamide [Example 145]
pIC50 [1, 5]: > 6.30
pIC50 [2, 4]: > 6.30

CC(Cc1cc2cc(-c3ccc(F)cc3Cl)ccc2nc1N)C(=O)NC1CCOC(C)(C)C1 (centres unmarked) [Example 166, 3-(2-amino-6-(2-chloro-4-fluorophenyl)-3-quinolinyl)-N-(2,2-dimethyltetrahydro-2H-pyran-4-yl)-2-methylpropanamide]
pIC50 [1, 3]: 5.30 to 6.00
pIC50 [2, 4]: > 6.30

CC(Cc1cc2cc(-c3ncccc3CCN3CCCC3)ccc2nc1N)C(=O)NCCC(C)(C)C (centres unmarked) [Example 125, 3-(2-amino-6-(3-(2-(pyrrolidin-1-yl)ethyl)pyridin-2-yl)quinolin-3-yl)-N-(3,3-dimethylbutyl)-2-methylpropanamide]
pIC50 [1, 3]: > 6.30
pIC50 [2, 4]: > 6.30

Cc1ccc(-c2ccc3nc(N)c(CC(C)C(=O)NCC4CCCCC4)cc3c2)c(F)n1 (centres unmarked) [Example 107, 3-(2-amino-6-(2-fluoro-6-methylpyridin-3-yl)quinolin-3-yl)-N-(cyclohexylmethyl)-2-methylpropanamide]
pIC50 [1, 3]: 5.30 to 6.00
pIC50 [2, 4]: 5.30 to 6.00

Cc1cccc(C(=O)N2CCCC2)c1-c1ccc2nc(N)c(CC(C)C(=O)NCc3ccccn3)cc2c1 (centres unmarked) [Example 149, 3-(2-amino-6-(2-methyl-6-(pyrrolidine-1-carbonyl)phenyl)quinolin-3-yl)-2-methyl-N-(pyridin-2-ylmethyl)propanamide]
pIC50 [1, 3]: > 6.30
pIC50 [2, 4]: > 6.30

3-(3-amino-7-o-tolylnaphthalen-2-yl)-N-(1-(pyridin-2-yl)ethyl)propanamide [Example 56]
pIC50 [1, 5]: 5.30 to 6.00
pIC50 [2, 4]: > 6.30

Cc1cccnc1-c1ccc2nc(N)c(CCC(=O)N[C@H](C)c3cccnc3)cc2c1 [Example 132, (R)-3-(2-amino-6-(3-methylpyridin-2-yl)quinolin-3-yl)-N-(1-(pyridin-3-yl)ethyl)propanamide]
pIC50 [1, 3]: < 5.30
pIC50 [2, 4]: 5.30 to 6.00

CNC(=O)[C@H](C)Cc1cc2cc(-c3c(C)cccc3C(=O)N3CCCC3)ccc2nc1N [Example 9, (R)-3-(2-amino-6-(2-methyl-6-(pyrrolidine-1-carbonyl)phenyl)quinolin-3-yl)-N,2-dimethylpropanamide]
pIC50 [1, 3]: > 6.30
pIC50 ([1]; Homo sapiens, HEK293, bound stated in text, read-out: IC50 value in the BACE cell-based in-vitro assay): > 7.00
pIC50 [2, 4]: > 6.30
pIC50 [2, 6]: > 7.30

Cc1ccccc1-c1ccc2nc(N)c(CCC(=O)NCC3(C)COC3)cc2c1 [Example 58, 3-(2-amino-6-o-tolylquinolin-3-yl)-N-((3-methyloxetan-3-yl)methyl)propanamide]
pIC50 [1, 3]: < 5.30
pIC50 [2, 4]: 5.30 to 6.00

COc1ccccc1[C@@H](C)NC(=O)C(C)Cc1cc2cc(-c3ccccc3C)ccc2nc1N (stereo partly drawn) [Example 76, 3-(2-amino-6-o-tolylquinolin-3-yl)-N-((R)-1-(2-methoxyphenyl)ethyl)-2-methylpropanamide]
pIC50 [1, 3]: 5.30 to 6.00
pIC50 [2, 4]: > 6.30

CCCCOc1ccccc1-c1ccc2nc(N)c(CC(C)C(=O)NCC3CCCCC3)cc2c1 (centres unmarked) [Example 103, 3-(2-amino-6-(2-butoxyphenyl)quinolin-3-yl)-N-(cyclohexylmethyl)-2-methylpropanamide]
pIC50 [1, 3]: > 6.30
pIC50 [2, 4]: > 6.30
pIC50 [2, 6]: > 7.30

Cc1ccccc1-c1ccc2nc(N)c(CCC(=O)N3CCC(F)(F)C3)cc2c1 [Example 134, 3-(2-amino-6-o-tolylquinolin-3-yl)-1-(3,3-difluoropyrrolidin-1-yl)propan-1-one]
pIC50 [1, 3]: < 5.30
pIC50 [2, 4]: 5.30 to 6.00

COC(Cc1cc2cc(-c3ccccc3C)ccc2nc1N)C(=O)NCC1CCCCC1 (centres unmarked) [Example 71, 3-(2-amino-6-o-tolylquinolin-3-yl)-N-(cyclohexylmethyl)-2-methoxypropanamide]
pIC50 [1, 3]: 5.30 to 6.00
pIC50 [2, 4]: > 6.30

Cc1ccccc1-c1ccc2nc(N)c(CC(C)C(=O)Nc3ccccc3)cc2c1 (centres unmarked) [Example 51, 3-(2-amino-6-o-tolylquinolin-3-yl)-2-methyl-N-phenylpropanamide]
pIC50 [1, 3]: 5.30 to 6.00
pIC50 [2, 4]: > 6.30
